In one series the test system is Staphylococcus aureus. The experiment in a line: Agar plate disc-diffusion antibacterial test. In kind it is cell-based. Conditions: nutrient agar, 37° C., 48 hours. As to the method:
(§1) The agar plate disc-diffusion method was applied. Sterilized filter papers (6 mm in diameter) were wetted with 10 μL of a solution of 2-(benzo[d]oxazol-2-yl)-N′-(picolinoyloxy)acetimidamide (3) to be tested, containing 10 mg/mL in DMSO, and the discs were allowed to air dry. The discs were then placed onto the surface of agar plates (nutrient agar for bacteria and Sabouraud's dextrose agar for fungi) seeded with the test organism. Each plate contained 15 mL of the agar medium, previously seeded with 0.2 mL of the broth culture of each organism pregrown for 18 hours. The plates were incubated at 37° C. for 48 hours, and 72 hours for fungi. The inhibition zones was measured in mm. Discs impregnated with DMSO were used as a control, and its inhibition zone was subtracted from the tested compound actual inhibition zone.

Another series has as its system Pseudomonas aeruginosa. The experiment in a line: Agar plate disc-diffusion antibacterial test. The series is classed as cell-based. Particulars: nutrient agar, 37° C., 48 hours. As to the method: as §1
(In general: Agar diffusion results depend on both activity and mobility in agar.)

The subject of the next series is Bacillus cereus. Nature of the series: Agar plate disc-diffusion antibacterial test. The series is classed as cell-based. Conditions: nutrient agar, 37° C., 48 hours. As to the method:
as §1

A further series relates to Escherichia coli. The experiment in a line: Agar plate disc-diffusion antibacterial test. Particulars: nutrient agar, 37° C., 48 hours. The series is classed as cell-based. As to the method: as §1
In series [1] the test system is Chrysosporium keratinophilum. Nature of the series: Agar plate disc-diffusion antifungal test. In kind it is cell-based. Conditions: Sabouraud's dextrose agar, 72 hours. As to the method: as §1
Another series relates to Aspergillus flavus. The experiment in a line: Agar plate disc-diffusion antifungal test. Particulars: Sabouraud's dextrose agar, 72 hours. The series is classed as cell-based. As to the method:
as §1

Where [2] appears, read: A = concentration of comp. = 10,000 μL.
Setting [3] is: B = concentration of comp. = 30,000 μL.
[4] abbreviates: C = concentration of comp. = 50,000 μL.

We go through one compound from patent US11905280B1, “2-(benzo[d]oxazol-2-yl)-N'-(picolinoyloxy)acetimidamide as an antimicrobial compound” (KING FAISAL UNIVERSITY, priority 2023, dated 2024).

Each structure is given as a SMILES string.

As a reminder, the melting point is the temperature, or range, at which the solid turns liquid. In turn, `N/C(Cc1nc2ccccc2o1)=N\OC(=O)c1ccccn1` [Compound 3, 2-(benzo[d]oxazol-2-yl)-N′-(picolinoyloxy)acetimidamide] yielded a melting point of 156 to 158 °C. For the same compound, the “inhibition zone, Staphylococcus aureus, A” value in the series with Staphylococcus aureus (setting [2]) turned out to be 15 mm. Moreover, in the series on Staphylococcus aureus (setting [3]), the “inhibition zone, Staphylococcus aureus, B” value is recorded as 20 mm. In addition, the “inhibition zone, Staphylococcus aureus, C” value in the series on Staphylococcus aureus (setting [4]) stood at 28 mm. The “inhibition zone, Pseudomonas aeruginosa, A” value in the series on Pseudomonas aeruginosa (setting [2]) is reported as 25 mm. Further, in the series with Pseudomonas aeruginosa (setting [3]), the “inhibition zone, Pseudomonas aeruginosa, B” value is 31 mm. Besides, in the series on Pseudomonas aeruginosa (setting [4]), the “inhibition zone, Pseudomonas aeruginosa, C” value is listed as 45 mm. In the series with Bacillus cereus (setting [2]), the “inhibition zone, Bacillus Cereus, A” value was determined as 25 mm. Also, the “inhibition zone, Bacillus Cereus, B” value in the series on Bacillus cereus (setting [3]) is listed as 27 mm. In the series with Bacillus cereus (setting [4]), the “inhibition zone, Bacillus Cereus, C” value stood at 39 mm. The “inhibition zone, Escherichia coli, A” value with Escherichia coli (setting [2]) came out at 29 mm. The “inhibition zone, Escherichia coli, B” value in the series with Escherichia coli (setting [3]) turned out to be 37 mm. Moreover, the “inhibition zone, Escherichia coli, C” value with Escherichia coli (setting [4]) stood at 53 mm. Also, the “inhibition zone, Chrysosporium keratinophilum, A” value in series [1] (setting [2]) is 23 mm. In addition, in series [1] (setting [3]), the “inhibition zone, Chrysosporium keratinophilum, B” value was found to be 29 mm. Moreover, the “inhibition zone, Chrysosporium keratinophilum, C” value in series [1] (setting [4]) worked out at 48 mm. Also, the “inhibition zone, Aspergillus flavus, A” value in the series with Aspergillus flavus (setting [2]) was 24 mm. In addition, the “inhibition zone, Aspergillus flavus, B” value in the series on Aspergillus flavus (setting [3]) is reported as 27 mm. Moreover, the “inhibition zone, Aspergillus flavus, C” value with Aspergillus flavus (setting [4]) came to 38 mm.
